Patent publication US20240299353A1, “COMPOSITIONS AND METHODS FOR TREATING […] 5-MEO-DMT” (Alvarius Pharmaceuticals Ltd., priority 2021, published 2024)

Tested on: primary hippocampal neurons
Experiment: Structural plasticity of cultured hippocampal neurons, Sholl analysis
Format: cell-based, rat
Conditions: for normalised AUC of the Sholl plot (dendritic arbor complexity): 24 h 5-MeO-DMT (20 μM) or cocaine (25 μM) alone, vs control; for maximum number of intersections (Nmax): FIG. 38C, all treatment groups
Excerpt: Primary Culture—Primary hippocampal neurons were derived from the hippocampi of embryonic day 18 (E18) rat embryos, as described previously (Seibenhener, M. L. & M. W. Wooten (2012) Isolation and Culture of Hippocampal Neurons from Prenatal Mice. Journal of Visualized Experiments: JoVE, 3634). Briefly, the brains were removed from the skull and stored in cooled Hank's Balanced Salt Solution (HBSS). The hippocampus was isolated under a dissection microscope and digested using 0.05% Trypsin (Gibco) in HBSS for 10 mins after which trypsinisation was stopped by the addition of 2% foetal calf serum (Gibco). Isolated cells were suspended in plating media and viable cells were counted with a haemocytometer using trypan blue (Gibco) staining. Cells were plated at a density of 1×10^6 cells/well on 12-well plates coated with 0.02% Poly-DL-ornithine hydrobromide (Sigma). After plating, cells were incubated at 37° C. in humidified air with 5% C02. Half medium changes were performed every 2-3 days with L-glutamic acid no longer included in the media after 3 DIV.
Immunocytochemistry—Primary hippocampal neurons grown on 18 mm diameter glass coverslips were fixed in 70% ethanol (EtOH) for 20 mins. After fixing, cells were permeabilised in 0.2% Triton X-100 (Thermo Fisher) in PBS and washed in PBS. Cells were blocked in 1% BSA (Sigma) in PBS for 45 mins. Following blocking, cells were incubated with primary antibodies in 5% BSA and 5% normal goat serum (Agilent) for 2 hours in a humidity chamber at room temperature or overnight at 4° C. Cells were rinsed in PBS and incubated with 1 ug/ml 4′,6-Diamidine-2′-phenylindole dihydrochloride (DAPI) (Thermo Fisher) for 10 mins. Coverslips were mounted on microscope slides using mounting medium containing mowiol 4-88 (Sigma), stored in the dark at 4° C. and were imaged within 7 days of mounting. Images were captured on a Zeiss AxioImager M1 fluorescent microscope using a x40 oil immersion lens. 10 images were taken per coverslip and images were analyzed by a customized R script (Appendix I) using EBImage by Bioconductor Ver 3.7. Briefly, DAPI staining was used as a nuclear reference with a threshold of a minimal radius and fluorescent intensity implemented to differentiate DAPI-labelled nuclei against cell debris or non-specific binding. A watershed command in the R script was used to ensure segmentation and identification of nuclei which may be tightly clustered as distinct objects. The nuclei were dilated using kernel expansion to designate the soma region surrounding the nucleus. A distance map was generated for each image which calculates the distance of each foreground pixel (white) to the nearest background pixel (black). Protein expression was measured as the average pixel fluorescence intensity for each cell in each channel. In all experiments cells were stained with an antibody for NeuN, a protein specifically expressed in neurons, to localise protein changes to the neuronal or non-neuronal cellular populations in the culture. Proteins assessed by ICC were 5-HT1AR (FIG. 7A), 5-HT2AR (FIG. 7B).
Primary hippocampal cultures were grown on 18 mm glass coverslips at a density of 1×10^6 cells as described. On 3 DIV all cells underwent a full medium change. […] On 4 DIV, all cells underwent a second full medium change. Cells in the combination group were treated with 2 μM 5-MeO-DMT for a further 24 hours with all other groups beginning a 24-hour treatment. After treatment was completed the cells were fixed and processed as described below.
After termination of drug treatment coverslips were processed and imaged as outlined for immunocytochemistry. In all instances NeuN antibody staining was used to visualize projections from the cell body. Images were analyzed using the Simple Neurite Tracer and Sholl analysis plug-ins for ImageJ Fiji. For the Sholl analysis circle radii of 2 μm increments were used. All images were taken and analyzed by an experimenter blinded to treatment conditions. […]

COC(=O)[C@H]1[C@@H](OC(=O)c2ccccc2)C[C@@H]2CC[C@H]1N2C.Cl [cocaine, cocaine hydrochloride, reference compound]
normalised AUC of the Sholl plot (dendritic arbor complexity) (FIG. 38B): increase dendritic arbor complexity | maximum number of intersections (Nmax): unchanged between treatment groups

COc1ccc2[nH]cc(CCN(C)C)c2c1 [5-MeO-DMT, 5-methoxy-N,N-dimethyltryptamine]
normalised AUC of the Sholl plot (dendritic arbor complexity) (FIG. 38B): increase dendritic arbor complexity | normalised AUC of the Sholl plot (FIG. 38B, 24 h cocaine followed by 24 h 5-MeO-DMT): increased the normalised AUC relative to either compound alone | maximum number of intersections (Nmax): unchanged between treatment groups | average neurite length (FIG. 38D, cocaine followed by 5-MeO-DMT): significantly increased the average neurite length relative to both the control and cocaine alone treatment groups
